Columns and labels:
rat [1] = settings: Subchronic oral toxicity in rodents, sprague dawley, Feed, dose end: 13 week, group: systemic
rat [2] = settings: Combined chronic toxicity/carcinogenicity; sprague dawley; Oral; Feed; dose end: 104 week; group: systemic; systemic / in life observation / body weight / body weight + systemic / in life observation / body weight / body weight gain + systemic / in…
mouse [3] = settings: Carcinogenicity; cd1; Oral; Feed; dose end: 78 week; group: systemic; systemic / in life observation / body weight / body weight + systemic / in life observation / body weight / body weight gain
rat [4] = settings: Fertility (Segment I), Oral, Gavage/Intubation, dose end: 6 GD
rat [5] = settings: Sub-acute repeat dose toxicity, sprague dawley, Oral, Gavage/Intubation, dose end: 1 month, group: systemic
rat [6] = settings: Fertility (Segment I); sprague dawley; Oral; Gavage/Intubation; dose end: 63 day; group: parental; systemic / in life observation / body weight / body weight + systemic / in life observation / body weight / body weight gain + systemic / in…
rabbit [7] = settings: Prenatal developmental toxicity study, new zealand white, Oral, Gavage/Intubation, dose end: 19 GD
dog [8] = settings: Chronic toxicity; beagle; Oral; Feed; dose end: 1 year; group: systemic; systemic / pathology microscopic / skeletal muscle / degeneration + systemic / pathology microscopic / skeletal muscle / infiltration …
mouse [9] = settings: Carcinogenicity; cd1; Oral; Feed; dose end: 78 week; group: systemic; systemic / in life observation / body weight / body weight gain + systemic / organ weight / liver / relative to body weight + systemic / …
rat [10] = settings: Prenatal developmental toxicity study, sprague dawley, Oral, Gavage/Intubation, dose end: 15 GD
rat [11] = settings: Multigenerational reproductive toxicity study, other, Oral, Feed, dose end: 2 generation
rabbit [12] = settings: Prenatal developmental toxicity study, new zealand white, Oral, Gavage/Intubation, dose end: 19 GD; remark: listed apart in the source
rat [13] = settings: Combined chronic toxicity/carcinogenicity, sprague dawley, Oral, [Not Specified], dose end: 104 week, group: systemic
dog [14] = settings: Chronic toxicity; beagle; Oral; Feed; dose end: 52 week; group: systemic; systemic / hematology / anemia / anemia - hemolytic + systemic / hematology / platelet / platelet + systemic / in life observation / body …
rat [15] = settings: Combined chronic toxicity/carcinogenicity, sprague dawley, Oral, Feed, dose end: 104 week, group: systemic
rat [16] = settings: Multigenerational reproductive toxicity study, sprague dawley, Oral, Feed, dose end: 2 generation, group: parental
rat [17] = settings: Developmental neurotoxicity study, sprague dawley, Oral, Gavage/Intubation, dose end: 105 PND, group: cannot be grouped
mouse [18] = settings: Subchronic oral toxicity in rodents, b6c3f1, Gavage/Intubation, dose end: 94 day, group: systemic, systemic / pathology microscopic / liver / vacuolization cytoplasmic + systemic / clinical chemistry / alkaline phosphatase (alp/alk) / …
rat [19] = settings: Subchronic oral toxicity in rodents, sprague dawley, Feed, dose end: 90 day, group: systemic, systemic / pathology gross / sperm measure / sperm count + systemic / pathology gross / sperm measure / sperm motility
rat [20] = settings: Multigenerational reproductive toxicity study, sprague dawley, Oral, [Not Specified], dose end: 2 generation
rat [21] = settings: Prenatal developmental toxicity study, sprague dawley, Oral, Gavage/Intubation, dose end: 20 GD
dog [22] = settings: Chronic toxicity, beagle, Oral, Feed, dose end: 104 week, group: systemic
[23] = systemic / in life observation / body weight / body weight + systemic / in life observation / body weight / body weight gain
[24] = systemic / in life observation / body weight / body weight + systemic / in life observation / body weight / body weight gain + systemic / in…
[25] = group: developmental, developmental / developmental malformation / bladder / [other]
[26] = group: parental, systemic / in life observation / body weight / body weight
[27] = systemic / hematology / hemoglobin distribution width (hdw) / hemoglobin distribution width (hdw) + systemic / hematology / platelet / …
[28] = group: developmental, developmental / developmental malformation / bone / short supernumerary
[29] = group: maternal, systemic / in life observation / body weight / body weight gain + systemic / in life observation / food consumption / food consumption
[30] = group: maternal, systemic / in life observation / body weight / body weight gain + systemic / in life observation / food consumption / food consumption + …
[31] = group: developmental, developmental / developmental malformation / bone / delayed ossification + systemic / in life observation / body weight / fetal weight
[32] = group: developmental, developmental / developmental malformation / bone / delayed ossification + systemic / in life observation / body weight / fetal weight + …
[33] = group: maternal, systemic / in life observation / body weight / body weight + systemic / in life observation / body weight / body weight gain + systemic / in…
[34] = group: offspring, developmental / offspring survival late / viability index / viability index
[35] = group: offspring, developmental / offspring survival late / viability index / viability index + systemic / in life observation / body weight / offspring (pup…
[36] = group: parental, systemic / organ weight / liver / absolute + systemic / organ weight / liver / relative to body weight + systemic / pathology microscopic / …
[37] = group: developmental, developmental / developmental malformation / bone / supernumerary
[38] = group: maternal, systemic / in life observation / body weight / body weight gain + systemic / in life observation / clinical signs / defecation + systemic / …
[39] = systemic / pathology gross / eye / discolored + systemic / pathology microscopic / eye / inflammation + systemic / pathology microscopic / …
[40] = systemic / in life observation / body weight / body weight gain + systemic / in life observation / body weight / body weight
[41] = developmental / developmental landmark / eye opening / eye opening + developmental / developmental landmark / incisor eruption / incisor …
[42] = developmental / developmental landmark / incisor eruption / incisor eruption + developmental / developmental landmark / eye opening / eye …
[43] = group: offspring, systemic / in life observation / body weight / offspring (pup) weight
[44] = group: parental, systemic / in life observation / body weight / body weight + systemic / in life observation / clinical signs / [other] + systemic / in life …
[45] = group: reproductive, reproductive / reproductive performance / gestational length / gestational length
[46] = group: developmental, developmental / developmental malformation / bone / misaligned + developmental / developmental malformation / mouth / jaw / protruding …
[47] = systemic / clinical chemistry / alkaline phosphatase (alp/alk) / alkaline phosphatase (alp/alk) + systemic / organ weight / liver / absolute…
[48] = systemic / pathology microscopic / spleen / hemosiderosis

## CCCCCCCCCCCC[N+](C)(C)Cc1ccccc1.[Cl-]
Rat [1]; [23]
  LOAEL: 62 mg/kg/day
Rat [1]; [24]
  NEL: 6.3 mg/kg/day
  NOAEL: 31.2 mg/kg/day
Rat [1]; systemic / in life observation / food consumption / food consumption + systemic / pathology gross / stomach / discolored
  LEL: 31.2 mg/kg/day
Rat [2]
  LEL: 88 mg/kg/day
  LOAEL: 88 mg/kg/day
  NEL: 44 mg/kg/day
  NOAEL: 44 mg/kg/day
Mouse [3]
  LEL: 229 mg/kg/day
  LOAEL: 229 mg/kg/day
  NEL: 73.4 mg/kg/day
  NOAEL: 73.4 mg/kg/day

## CCN1CCC2(CC1)COc1cc3c(cc12)N(C(=O)c1ccc(-c2ccc(-c4nnc(C)o4)cc2C)cc1)CC3.Cl
Rat [4]; [25]
  LEL: 30 mg/kg/day
  LOAEL: > 30 mg/kg/day
  NEL: 10 mg/kg/day
  NOAEL: ≥ 30 mg/kg/day
Rat [4]; [26]
  LEL: 30 mg/kg/day
  LOAEL: > 30 mg/kg/day
  NEL: 10 mg/kg/day
  NOAEL: ≥ 30 mg/kg/day
Rat [5]; [27]
  LOAEL: > 30 mg/kg/day
  NEL: 3 mg/kg/day
  NOAEL: ≥ 30 mg/kg/day
Rat [5]; systemic / hematology / platelet / platelet + systemic / hematology / reticulocyte / reticulocyte
  LEL: 10 mg/kg/day
Rat [6]
  LEL: 30 mg/kg/day
  LOAEL: > 30 mg/kg/day
  NEL: 10 mg/kg/day
  NOAEL: ≥ 30 mg/kg/day

## Cc1cnc(C2=NC(C)(C(C)C)C(=O)N2)c(C(=O)O)c1 (stereo not given) [Imazapic]
Rabbit [7]; [28]
  LEL: 350 mg/kg/day
  LOAEL: > 700 mg/kg/day
  NEL: 175 mg/kg/day
  NOAEL: ≥ 700 mg/kg/day
Rabbit [7]; [29]
  LEL: 500 mg/kg/day
  LOAEL: 500 mg/kg/day
Rabbit [7]; [30]
  NEL: 350 mg/kg/day
  NOAEL: 350 mg/kg/day
Dog [8]
  LEL: 137 mg/kg/day
  LOAEL: 137 mg/kg/day
  NEL: < 137 mg/kg/day
  NOAEL: < 137 mg/kg/day

## CS(=O)(=O)c1cc(C(F)(F)F)ccc1C(=O)c1cnoc1C1CC1 [Isoxaflutole]
Mouse [9]
  LEL: 64.4 mg/kg/day
  LOAEL: 64.4 mg/kg/day
  NEL: 3.2 mg/kg/day
  NOAEL: 3.2 mg/kg/day
Rat [10]; [31]
  LEL: 100 mg/kg/day
  LOAEL: 100 mg/kg/day
Rat [10]; [32]
  NEL: 10 mg/kg/day
  NOAEL: 10 mg/kg/day
Rat [10]; [33]
  LEL: 500 mg/kg/day
  LOAEL: 500 mg/kg/day
  NEL: 100 mg/kg/day
  NOAEL: 100 mg/kg/day
Rat [11]; [34]
  LEL: 17.4 mg/kg/day
  LOAEL: 17.4 mg/kg/day
Rat [11]; [35]
  NEL: 1.76 mg/kg/day
  NOAEL: 1.76 mg/kg/day
Rat [11]; [36]
  LEL: 17.4 mg/kg/day
  LOAEL: 17.4 mg/kg/day
  NEL: 1.76 mg/kg/day
  NOAEL: 1.76 mg/kg/day
Rabbit [12]; [37]
  LEL: 5 mg/kg/day
  LOAEL: 5 mg/kg/day
  NEL: < 5 mg/kg/day
  NOAEL: < 5 mg/kg/day
Rabbit [12]; [38]
  LEL: 100 mg/kg/day
  LOAEL: 100 mg/kg/day
  NEL: 20 mg/kg/day
  NOAEL: 20 mg/kg/day
Rat [13]; systemic / organ weight / liver / absolute + systemic / organ weight / liver / relative to body weight + systemic / pathology gross / liver…
  NEL: 2 mg/kg/day
Rat [13]; [39]
  LEL: 20 mg/kg/day
  LOAEL: 20 mg/kg/day
  NOAEL: 2 mg/kg/day
Dog [14]
  LEL: 453 mg/kg/day
  LOAEL: 453 mg/kg/day
  NEL: 44.8 mg/kg/day
  NOAEL: 44.8 mg/kg/day

## COC(=O)c1ccccc1S(=O)(=O)NC(=O)Nc1nc(C)nc(OC)n1 [Metsulfuron-methyl]
Rat [15]; [23]
  LOAEL: 250 mg/kg/day
  NEL: 1.25 mg/kg/day
  NOAEL: 125 mg/kg/day
Rat [15]; systemic / in life observation / body weight / body weight gain + systemic / in life observation / body weight / body weight + systemic / …
  LEL: 25 mg/kg/day
Rat [16]; systemic / in life observation / body weight / body weight gain
  LOAEL: 250 mg/kg/day
Rat [16]; [40]
  LEL: 250 mg/kg/day
  NEL: 25 mg/kg/day
  NOAEL: 25 mg/kg/day

## CC(=O)OC/C=C(C)/C=C/C=C(C)/C=C/C1=C(C)CCCC1(C)C [Retinol acetate]
Rat [17]; [41]
  LOAEL: > 34.4 mg/kg/day
  NOAEL: ≥ 34.4 mg/kg/day
Rat [17]; [42]
  LEL: 8.6 mg/kg/day
  NEL: < 8.6 mg/kg/day

## CO[C@H]1/C=C/O[C@@]2(C)Oc3c(C)c(O)c4c(O)c(c(/C=N/N5CCN(C)CC5)c(O)c4c3C2=O)NC(=O)/C(C)=C\C=C\[C@H](C)[C@H](O)[C@@H](C)[C@@H](O)[C@@H](C)[C@H](OC(C)=O)[C@@H]1C [Rifampicin]
Mouse [18]
  LEL: 100 mg/kg/day
  LOAEL: 100 mg/kg/day
  NEL: < 100 mg/kg/day
  NOAEL: < 100 mg/kg/day

## O=C(O)c1ccc(C(=O)O)cc1 [Terephthalic acid]
Rat [19]
  LEL: 5820 mg/kg/day
  LOAEL: > 5820 mg/kg/day
  NEL: 1180 mg/kg/day
  NOAEL: ≥ 5820 mg/kg/day

## CC(C)N(C(=O)SCC(Cl)=C(Cl)Cl)C(C)C [Tri-allate]
Rat [20]; [43]
  LEL: 2.5 mg/kg/day
  NEL: < 2.5 mg/kg/day
  NOAEL: 7.5 mg/kg/day
Rat [20]; group: offspring, systemic / in life observation / body weight / offspring (pup) weight + developmental / offspring survival late / [other] / [other]
  LOAEL: 30 mg/kg/day
Rat [20]; [44]
  LOAEL: 30 mg/kg/day
  NEL: 2.5 mg/kg/day
  NOAEL: 7.5 mg/kg/day
Rat [20]; group: parental, systemic / in life observation / body weight / body weight + systemic / organ weight / ovary / relative to body weight + systemic / organ …
  LEL: 7.5 mg/kg/day
Rat [20]; [45]
  LEL: 30 mg/kg/day
  LOAEL: 30 mg/kg/day
  NEL: 7.5 mg/kg/day
  NOAEL: 7.5 mg/kg/day
Rat [21]; [46]
  LEL: 90 mg/kg/day
  LOAEL: 90 mg/kg/day
  NEL: 30 mg/kg/day
  NOAEL: 30 mg/kg/day
Rat [21]; [29]
  LOAEL: 30 mg/kg/day
Rat [21]; [30]
  LEL: 30 mg/kg/day
  NEL: 10 mg/kg/day
  NOAEL: 10 mg/kg/day
Dog [22]; [47]
  LOAEL: 5 mg/kg/day
  NOAEL: 1.5 mg/kg/day
Dog [22]; [48]
  LEL: 1.5 mg/kg/day
  NEL: < 1.5 mg/kg/day
